Results published in patent US9885044B2, “Polynucleotides and methods for inhibiting cancer cells” (Chang Gung Memorial Hospital, Linkou, priority 2015, dated 2018).

Tests used:
Format in all cases: cell-based
Puf-A = assay: Effect of small molecules blocking downstream effectors of Kras pathway on Puf-A expression (Western blot); conditions: H460 and HCT116 cancer cells
From the text: FIG. 3C is a series of bar graphs showing Puf-A promoter activity in Kras^G12D or c-Myc transfected cells, determined by dual-luciferase reporter assay. FIG. 3D illustrates the binding of c-Myc protein to exon 1 of Puf-A locus in H1299 and HCT116 cells. […] FIG. 3F is an assembly of the Western blot images illustrating the effect of Raf inhibitor (Raf (i)), MEK1 inhibitor (PD98059) and MEK1/2 inhibitor (U0126) on the expression of Puf-A, phosphorylated ERK1/2, total ERK1/2 and β-actin in H460 (Kras ^Q61H) and HCT116 (Kras^G13D) cancer cells.
The effect of various small molecules (such as Raf(i), PD98059 and UO126), which block the downstream effectors of Kras pathway (such as Rafs, MEK1 and MEK2), was assessed in H460 and HCT116 cancer cells.

T98 glioblatoma cells = assay: Cell proliferation assay, xCELLigenece RTCA system, T98; conditions: 25 and 50 uM
Protocol: (§1) FIG. 9A is an assembly of Western blot images illustrating 25 and 50 uM of resveratrol reduced the expression of Puf-a in A549 lung cancer cells, HCT116 colon cancer cells, MB231 breast cancer cells and T98 glioblatoma cells. FIG. 9B is an assembly of graphs illustrating 25 and 50 uM of resveratrol was effective in reducing the proliferation of A549 lung cancer cells, HCT116 colon cancer cells, MB231 breast cancer cells and T98 glioblatoma cells.
(§2) An in vitro evaluation of the effect of Resveratrol on the expression level of Puf-a protein and cell proliferation in various cancer cells was examined. The following cancer cells were treated with 0, 25 or 50 uM of Resveratrol (commercially available from Sigma, USA): A549 lung cancer cells (p53 proficient), HCT116 colon cancer cells (p53 proficient), MB231 breast cancer cells (p53 deficient) and T98 glioblatoma cells (p53 deficient). The expression of Puf-A protein in these cancer cells was analyzed by western blot and the cell proliferation was measured with a cell proliferation assay performed with xCELLigenece RTCA system (ACEA Biosciences Inc, USA). FIG. 9A is an assembly of Western blot images illustrating 25 and 50 uM of resveratrol reduced the expression of Puf-A in A549 lung cancer cells, HCT116 colon cancer cells, MB231 breast cancer cells and T98 glioblatoma cells. […]

Puf-A protein = assay: Effect of resveratrol on Puf-A protein expression (Western blot); conditions: 25 and 50 uM
Protocol: as §1
An in vitro evaluation of the effect of Resveratrol on the expression level of Puf-a protein and cell proliferation in various cancer cells was examined. The following cancer cells were treated with 0, 25 or 50 uM of Resveratrol (commercially available from Sigma, USA): A549 lung cancer cells (p53 proficient), HCT116 colon cancer cells (p53 proficient), MB231 breast cancer cells (p53 deficient) and T98 glioblatoma cells (p53 deficient). The expression of Puf-A protein in these cancer cells was analyzed by western blot and the cell proliferation was measured with a cell proliferation assay performed with xCELLigenece RTCA system (ACEA Biosciences Inc, USA). FIG. 9A is an assembly of Western blot images illustrating 25 and 50 uM of resveratrol reduced the expression of Puf-A in A549 lung cancer cells, HCT116 colon cancer cells, MB231 breast cancer cells and T98 glioblatoma cells. FIG. 9B is an assembly of graphs illustrating 25 and 50 uM of resveratrol reduced the proliferation of A549 lung cancer cells, HCT116 colon cancer cells, MB231 breast cancer cells and T98 glioblatoma cells compare to the control group (no resveratrol).

[1] = test system: MB231 breast cancer cells; assay: Cell proliferation assay, xCELLigenece RTCA system, MB231; conditions: 25 and 50 uM
Protocol: as §1, §2

A549 lung cancer cells = assay: Cell proliferation assay, xCELLigenece RTCA system, A549; conditions: 25 and 50 uM
Protocol: as §1, §2

[2] = test system: HCT116 colon cancer cells; assay: Cell proliferation assay, xCELLigenece RTCA system, HCT116; conditions: 25 and 50 uM
Protocol: as §1, §2

COc1cccc(-c2cc(=O)c3ccccc3o2)c1N [PD98059]
reduced: expression levels of Puf-A (Puf-A)

Oc1ccc(C=Cc2cc(O)cc(O)c2)cc1 [resveratrol]
reduced: proliferation compared to control group (no resveratrol) (T98 glioblatoma cells) | expression of Puf-A (Puf-A protein; A549 lung cancer cells (p53 proficient)) | expression of Puf-A (Puf-A protein; HCT116 colon cancer cells (p53 proficient)) | expression of Puf-A (Puf-A protein; MB231 breast cancer cells (p53 deficient)) | expression of Puf-A (Puf-A protein; T98 glioblatoma cells (p53 deficient)) | proliferation compared to control group (no resveratrol) [1] | proliferation compared to control group (no resveratrol) (A549 lung cancer cells) | proliferation compared to control group (no resveratrol) [2]
